Laboratory results reported in ChEMBL document CHEMBL5441142, “Probing the Merck KGaA Open Global health library for novel starting points for anti-schistosomal drug discovery” (2024).
The source made the active and inactive calls.

What was measured:
[1] = system: Schistosoma mansoni; assay: In vitro activity screen on S. mansoni schistosomula at 10 uM. Compound-induced effects were assessed by quantifying larva motility and phenotype using Roboworm.; type: functional, organism-based; design: test concentration 10 uM, temperature 37 degree C, time incubation 72 h; settings: Puerto Rican
[2] = system: Schistosoma mansoni; assay: Ex vivo activity screen on S. mansoni adult worms at 20 uM. Parasite motility after compound treatment was assessed at 72 h using the WHO-TDR scoring metric.; type: functional, organism-based; design: test concentration 20 uM, temperature 37 degree C; settings: Puerto Rican

In the case of `Cc1cn(-c2ccc(Nc3ncn(Cc4ccc(Cl)cc4)n3)cc2C#N)cn1`, the In vitro activity [1] is reported as “Active” and the Ex-vivo screening [2] is reported as “inactive”.

With `COc1ccc(OC)c(CCNC(=O)c2ccc3nc(-c4cc(OCCCO)ccc4OC)cn3c2)c1` the In vitro activity [1] was “Active” and the Ex-vivo screening [2] was “inactive”.

With `CNS(=O)(=O)c1ccccc1Nc1nc(Nc2ccc(N3CCOCC3)cc2OC)ncc1Br` the In vitro activity [1] was “Active” and the Ex-vivo screening [2] was “inactive”.

In the case of `COc1cc(Nc2cn(Cc3ccc(Oc4ccccc4)cc3)nn2)ccc1-n1cnc(C)c1`, the In vitro activity [1] is reported as “Active” and the Ex-vivo screening [2] is reported as “inactive”.

In the case of `COc1cc(OC)c(CCNC(=O)c2cn3cc(-c4cc(OCCO)ccc4OC)nc3s2)c(OC)c1`, the In vitro activity [1] is reported as “Active” and the Ex-vivo screening [2] is reported as “inactive”.

`COc1cccc(CNc2nnc(-c3c[nH]c4ncccc34)o2)c1` was tested, and the In vitro activity [1] was “Active” and the Ex-vivo screening [2] was “inactive”.

For `Clc1cccc(OCc2ncc3nccnc3n2)c1Cl`, the In vitro activity [1] was “Active” and the Ex-vivo screening [2] was “inactive”.

With `CCOc1cc(CCNC(=O)C[C@H]2S[C@@H](c3ccc(C#Cc4ccccc4)cc3)N(c3cccc(C(N)=O)c3)C2=O)ccc1OC` the In vitro activity [1] was “Active” and the Ex-vivo screening [2] was “inactive”.

With `COc1cc(OC)c(CCNC(=O)c2cn3cc(-c4cc(OCC#N)ccc4OC)nc3s2)c(OC)c1` the In vitro activity [1] was “Active” and the Ex-vivo screening [2] was “inactive”.

In the case of `COc1ccc(OCCCO)cc1-c1cn2cc(-c3nnc(NCCCCc4ccccc4)o3)ccc2n1`, the In vitro activity [1] is reported as “Active” and the Ex-vivo screening [2] is reported as “inactive”.

With `CN(C)C(=O)/C=C/C(=O)c1ccc(SCc2ccc(Cl)cc2Cl)cc1` the In vitro activity [1] was “Active” and the Ex-vivo screening [2] was “inactive”.

For `CNS(=O)(=O)c1ccccc1Nc1nc(Nc2cc(OC)c(OC)cc2C)ncc1Br`, the In vitro activity [1] was “Active” and the Ex-vivo screening [2] was “inactive”.

For `COc1cc(OC)c(CCNC(=O)c2cn3cc(-c4cc(OC)ccc4OC)nc3s2)c(OC)c1`, the In vitro activity [1] was “Active” and the Ex-vivo screening [2] was “inactive”.

For `Cc1cc(Nc2ccccn2)c(S(C)(=O)=O)cc1C(=O)N=C(N)N`, the In vitro activity [1] was “inactive”.

With `CCOC(=O)Nc1ccc(C(=O)N2CCCC(c3ccc(OC)c(OCC)c3)=N2)cc1` the In vitro activity [1] was “inactive”.

With `Cc1cc(C2CCCC2)c(S(C)(=O)=O)cc1C(=O)N=C(N)N` the In vitro activity [1] was “inactive”.

In the case of `CC1=C(C(=O)N2CCc3ncc(C(F)(F)F)cc3C2)C2(CCN([C@H]3CC[C@@H](O)CC3)CC2)OC1=O`, the In vitro activity [1] is reported as “inactive”.

For `COCc1cc(-c2nc(-c3cccc(CN(C)CC(=O)O)c3)no2)ccc1-c1ccccc1`, the In vitro activity [1] was “inactive”.

In the case of `COCCCOc1ccc(OC)c(-c2cn3cc(C(=O)NCCc4c(OC)cc(OC)cc4OC)ccc3n2)c1`, the In vitro activity [1] is reported as “Active” and the Ex-vivo screening [2] is reported as “inactive”.

`Cc1cc(-c2ccc[nH]2)c(S(C)(=O)=O)cc1C(=O)N=C(N)N` was tested, and the In vitro activity [1] was “inactive”.

In the case of `COCc1cc(-c2nc(-c3ccc(CNCC(=O)O)c(F)c3)no2)ccc1-c1ccccc1F`, the In vitro activity [1] is reported as “Active” and the Ex-vivo screening [2] is reported as “inactive”.

With `COc1ccc(OCC(=O)O)cc1-c1cn2cc(C(=O)NCCc3c(OC)cccc3OC)sc2n1` the In vitro activity [1] was “inactive”.

For `Cc1cc(C2CCC2)c(S(C)(=O)=O)cc1C(=O)N=C(N)N`, the In vitro activity [1] was “inactive”.

With `Cc1cc(C2=CCCC2)c(S(C)(=O)=O)cc1C(=O)N=C(N)N` the In vitro activity [1] was “inactive”.

For `COc1cc(C(=O)NCc2cn(Cc3ccc(Cl)c(Cl)c3)nn2)ccc1-c1ccnc(C)c1`, the In vitro activity [1] was “inactive”.

With `CCc1cc(C(=O)NCc2ccc3c(c2)OCO3)c(NC(=O)c2ccc(C(=O)O)cc2)s1` the In vitro activity [1] was “inactive”.

`CCNC1=N[C@@H]2[C@@H](O)[C@H](O)[C@@H](Cn3cc(COc4ccc(Cl)cc4)nn3)O[C@@H]2S1` was tested, and the In vitro activity [1] was “inactive”.

In the case of `COc1ccc(CNc2nc3c(ccc4[nH]c(=O)c(C#N)cc43)s2)cc1`, the EC50 [1] is reported as 4.35 µM (active) and the Ex-vivo screening [2] is reported as “Active”.

`CCCc1nn(C)c2c(=O)[nH]c(-c3cc(S(=O)(=O)Oc4cccnc4C)ccc3OCC)nc12` was tested, and the In vitro activity [1] was “inactive”.

For `CC1(C)C=C(n2ccccc2=O)c2cc(C#N)ccc2O1`, the In vitro activity [1] was “inactive”.

In the case of `CC1=C(C(=O)N2CCN(c3cccc(C(F)(F)F)c3)CC2)C2(CCN(CCc3ccccc3)CC2)OC1=O`, the In vitro activity [1] is reported as “inactive”.

In the case of `CCCc1nn(C)c2c(=O)[nH]c(-c3cc(S(=O)(=O)Oc4nc(C)ccc4C#N)ccc3OCC)nc12`, the In vitro activity [1] is reported as “inactive”.

`CCOc1cc(C2=NN(C(=O)c3ccc(NC(=O)c4cccnc4)cc3)CCC2)ccc1OC` was tested, and the In vitro activity [1] was “inactive”.

`Cc1cc2c(NCc3ccc4c(c3)OCO4)nc(-c3ccc(C(=O)O)cc3)nc2s1` was tested, and the In vitro activity [1] was “inactive”.

With `COc1cc(SCCO)ccc1-c1nc2ccncc2[nH]1` the In vitro activity [1] was “inactive”.

With `O=C(O)c1ccc(-c2nc(NCc3ccc4c(c3)OCO4)c3c(n2)sc2ccccc23)cc1` the In vitro activity [1] was “inactive”.

`COc1cc(OC)c(CCNC(=O)c2ccc3nc(-c4cc(OC)ccc4OC)cn3c2)c(OC)c1` was tested, and the In vitro activity [1] was “inactive”.

For `COCc1cc(-c2nc(-c3cccc(CN(C)CC(=O)O)c3)no2)ccc1N1CCCC1C` (configuration not stated), the In vitro activity [1] was “inactive”.

`COc1ccc(OCCCO)cc1-c1cn2cc(C(=O)NCCc3c(OC)cccc3OC)sc2n1` was tested, and the In vitro activity [1] was “Active” and the Ex-vivo screening [2] was “inactive”.

In the case of `CC1=C(C(=O)N2CCc3ccc(C(F)(F)F)cc3C2)C2(CCN(C3CCC(O)CC3)CC2)OC1=O` (configuration not stated), the In vitro activity [1] is reported as “inactive”.

With `O=C(O)[C@H]1CC[C@H](c2nc(NCc3ccc4c(c3)OCO4)c3c4c(sc3n2)CCCC4)CC1` the In vitro activity [1] was “inactive”.

`CC1=C(C(=O)N2COc3ccc(C(F)(F)F)cc3C2)C2(CCN(C(C)C)CC2)OC1=O` was tested, and the In vitro activity [1] was “inactive”.

`Cc1cc(-c2ccccc2)c(S(C)(=O)=O)cc1C(=O)N=C(N)N` was tested, and the In vitro activity [1] was “inactive”.

In the case of `COc1cc(OC)c(CCNC(=O)c2cn3cc(-c4cc(OCC(=O)NCCO)ccc4OC)nc3s2)c(OC)c1`, the In vitro activity [1] is reported as “inactive”.

In the case of `CC1=C(C(=O)N2CCc3ncc(C(F)(F)F)cc3C2)C2(CCN(CC3CCOC3)CC2)OC1=O` (configuration not stated), the In vitro activity [1] is reported as “inactive”.

With `CC1=C(C(=O)N2Cc3cc(C(F)(F)F)ccc3C(C)(C)C2)C2(CCN(C3CCOCC3)CC2)OC1=O` the In vitro activity [1] was “inactive”.

`CC1=C(C(=O)N2CCc3ncc(C(F)(F)F)cc3C2)C2(CCN(C3CCc4ccccc43)CC2)OC1=O` (configuration not stated) was tested, and the In vitro activity [1] was “inactive”.

With `O=C(C1CCCCC1)N1CC(=O)N2CCc3ccccc3[C@@H]2C1` the In vitro activity [1] was “Active” and the Ex-vivo screening [2] was “inactive”.

With `CCC(C)c1cc(C)c(C(=O)N=C(N)N)cc1S(C)(=O)=O` (configuration not stated) the In vitro activity [1] was “inactive”.

For `COc1cc([S+](C)[O-])ccc1-c1nc2cnccc2[nH]1` (configuration not stated), the In vitro activity [1] was “inactive”.

`Oc1ccc2[nH]cc(CCCCN3CC=C(c4ccccc4)CC3)c2c1` was tested, and the In vitro activity [1] was “inactive”.

With `O=C(O)c1cn(Cc2ccc(-c3ccccc3)cc2)c2ccccc2c1=O` the In vitro activity [1] was “inactive”.

With `Cn1c2ccccc2c2c(NCc3ccc4c(c3)OCO4)nc(-c3ccc(C(=O)O)cc3)nc21` the In vitro activity [1] was “inactive”.

`CS(=O)(=O)c1cccc(-c2ccc(Cn3cc(C(=O)O)c(=O)c4cccc(F)c43)cn2)c1` was tested, and the In vitro activity [1] was “inactive”.

For `COc1ccc(N2C[C@H](CN3CCC(O)(c4ccc5c(c4)OCO5)CC3)OC2=O)cc1`, the In vitro activity [1] was “inactive”.

`COCc1cc(-c2nc(-c3ccc(C(=O)O)c(F)c3)no2)ccc1-c1cc(F)ccc1OC` was tested, and the In vitro activity [1] was “inactive”.

For `Cc1ccccc1-c1ccc(-c2nc(-c3ccc(CN(C)CCC(=O)O)c(F)c3)no2)cc1OCC1CC1`, the In vitro activity [1] was “inactive”.

With `COc1ccc(OCc2nn[nH]n2)cc1-c1cn2cc(C(=O)NCCc3c(OC)cccc3OC)sc2n1` the In vitro activity [1] was “inactive”.

For `CCCCc1nc2ccn(CC(=O)N(C)C)c(=O)c2n1Cc1ccc(-c2ccccc2-c2nnn[nH]2)cc1`, the In vitro activity [1] was “inactive”.

`COc1cc(C(=O)Nc2cn(Cc3ccc4ccccc4c3)nn2)ccc1-n1cnc(C)c1` was tested, and the In vitro activity [1] was “inactive”.

In the case of `COc1ccc(CNc2nc(CCCC(=O)O)nc3oc4c(c23)CCCC4)cc1Cl`, the In vitro activity [1] is reported as “inactive”.

For `CN(C)c1cccc2c(S(=O)(=O)Nc3ccc4nsnc4c3)cccc12`, the In vitro activity [1] was “inactive”.

With `CCCN1CCC2(CC1)OC(=O)C(C)=C2C(=O)N1CCc2ncc(C(F)(F)F)cc2C1` the In vitro activity [1] was “inactive”.

With `COCc1cc(-c2nc(-c3ccc(CN(C)CC(=O)O)c(F)c3)no2)ccc1-c1cccc(F)c1C` the In vitro activity [1] was “inactive”.

In the case of `COc1ccc(CCNC(=O)c2cn3cc(-c4cc(OCCCO)ccc4OC)nc3s2)c(OCCCO)c1`, the In vitro activity [1] is reported as “inactive”.

With `CCS(=O)(=O)c1cc(C)c(C(=O)N=C(N)N)cc1S(C)(=O)=O` the In vitro activity [1] was “inactive”.

For `COCc1cc(-c2nc(-c3cccc(CN(C)CC(=O)O)c3)no2)ccc1N1CCCCC1`, the In vitro activity [1] was “inactive”.

With `CC1=C(C(=O)N2CCc3ccc(C(F)(F)F)cc3C2)C2(CCN(C3CCOC(C)C3)CC2)OC1=O` (configuration not stated) the In vitro activity [1] was “inactive”.

`COc1nc(/C=C/c2nc3n(n2)CCCC3c2ccccc2C(F)(F)F)ccc1-n1cnc(C)c1` (configuration not stated) was tested, and the In vitro activity [1] was “inactive”.

In the case of `COc1ccc(C2=NN(C(=O)c3ccc(NC(=O)c4cccnc4)cc3)CCC2)cc1OC1CCCC1`, the In vitro activity [1] is reported as “inactive”.

In the case of `CC1=C(C(=O)N2CCc3ncc(C(F)(F)F)cc3C2)C2(CCN(C3CCC(O)CC3)CC2)OC1=O` (configuration not stated), the In vitro activity [1] is reported as “inactive”.

With `CC/N=C(\c1ccc(OC)c(OC)c1)N1CCCc2cc(C3=NNC(=O)SC3C)ccc21` (configuration not stated) the In vitro activity [1] was “inactive”.

`COc1ccc(CNc2nc(-c3ccc(C(=O)O)nc3)nc3sc4c(c23)CCCC4)cc1Cl` was tested, and the In vitro activity [1] was “inactive”.

For `COc1ccc(N2C(=O)c3ccccc3NC23CN(Cc2cccc(C)c2)C3)cc1`, the In vitro activity [1] was “inactive”.
